Laboratory results taken from article PMC8382845, “High-content image-based analysis and proteomic profiling identifies Tau phosphorylation inhibitors in a human iPSC-derived glutamatergic neuronal model of tauopathy” (Scientific Reports, 2021).

Target: T1, GSK3α (Homo sapiens, UniProt P49840)
T1 construct: gene GSK3A
T1 sequence (P49840 2-483): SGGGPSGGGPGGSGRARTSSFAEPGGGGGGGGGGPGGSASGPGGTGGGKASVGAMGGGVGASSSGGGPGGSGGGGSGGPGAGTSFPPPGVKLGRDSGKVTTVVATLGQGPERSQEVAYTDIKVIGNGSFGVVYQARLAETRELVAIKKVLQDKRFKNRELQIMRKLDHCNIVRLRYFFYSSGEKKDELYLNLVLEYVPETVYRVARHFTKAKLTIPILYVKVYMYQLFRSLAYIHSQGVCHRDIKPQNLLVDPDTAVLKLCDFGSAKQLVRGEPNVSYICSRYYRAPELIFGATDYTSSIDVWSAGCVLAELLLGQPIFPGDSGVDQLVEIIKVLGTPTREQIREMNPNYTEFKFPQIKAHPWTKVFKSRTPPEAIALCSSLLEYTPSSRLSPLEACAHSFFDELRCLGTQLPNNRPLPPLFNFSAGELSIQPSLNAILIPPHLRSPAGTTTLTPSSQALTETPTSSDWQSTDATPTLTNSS

SMILES: Cc1c[nH]c(-c2cnc(NCCNc3ccc(C#N)cn3)nc2-c2ccc(Cl)cc2Cl)n1 [CHIR-99021]
- MIB-MS chemoproteomic competition (loss of kinase binding to inhibitor beads) af: This effect of CHIR-99021 was similar between the two GSK isoforms, GSK3α and GSK3β (Fig. 5C) in both NPC and neurons
